In PubChem BioAssay (NCI):
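Cells were grown in 96-well plates and exposed to each compound for 48 hours at five concentrations; endpoints were interpolated linearly between bracketing concentrations, or set to the highest concentration if not reached. Abbreviation: GI50, concentration required for 50% inhibition of growth. TGI is the concentration that stops growth completely.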

Legend:
Assay in all cases: NCI-60 cell line screen, 48 h
HL-60(TB) leukemia = system: HL-60(TB) leukemia
MOLT-4 leukemia = system: MOLT-4 leukemia
SK-OV-3 ovarian = system: SK-OV-3 ovarian
SR leukemia = system: SR leukemia
IGROV1 ovarian = system: IGROV1 ovarian
A498 renal = system: A498 renal
SW-620 colon = system: SW-620 colon
SF-268 CNS = system: SF-268 CNS
786-0 renal = system: 786-0 renal
K-562 leukemia = system: K-562 leukemia

Row | SMILES | GI50 (HL-60(TB) leukemia) [µM] | TGI (HL-60(TB) leukemia) [µM] | GI50 (MOLT-4 leukemia) [µM] | TGI (MOLT-4 leukemia) [µM] | GI50 (SK-OV-3 ovarian) [µM] | TGI (SK-OV-3 ovarian) [µM] | GI50 (SR leukemia) [µM] | TGI (SR leukemia) [µM] | GI50 (IGROV1 ovarian) [µM] | TGI (IGROV1 ovarian) [µM] | GI50 (A498 renal) [µM] | TGI (A498 renal) [µM] | GI50 (SW-620 colon) [µM] | TGI (SW-620 colon) [µM] | GI50 (SF-268 CNS) [µM] | TGI (SF-268 CNS) [µM] | GI50 (786-0 renal) [µM] | TGI (786-0 renal) [µM] | GI50 (K-562 leukemia) [µM] | TGI (K-562 leukemia) [µM]
1 | O=C1Cc2cc(CCn3ccnc3)c(Cl)cc2N1 | 63.2 | > 100 | 56.7 | > 100 | 18.1 | > 100 | 9.24 | > 100 | > 100 | > 100 | 2.19 | 61.1 | 5.02 | > 100 | 11.2 | > 100 | > 100 | > 100 | 8.26 | > 100
2 | CCN1CCC[C@H]1c1cc(O)c2c(c1OC)C[C@H]1C[C@H]3[C@H](N)C(=O)C(C(N)=O)=C(O)[C@@]3(O)C(=O)C1=C2O | 0.0379 | 0.238 | 0.0587 | 0.666 | 0.032 | 0.215 | 0.0436 | 0.94 | 0.0419 | 4.95 | 0.0315 | 0.2 | 0.0536 | 3.24 | 0.0709 | 5.25 | 0.0504 | 2.19 | 0.0599 | > 100
3 | CCCNc1nc(N(C)O)nc(N(C)O)n1 | 0.59 | 4.56 | 0.194 | > 28 | 3.46 | > 100 | 0.149 | > 30.1 | 2.13 | 14.6 | 9.51 | > 62.6 | 3.46 | > 100 | 1.39 | > 56.6 | 2.53 | > 43.4 | 2.24 | > 100
4 | CCCCCCN(CCCCCC)CCCNc1nccc2ccccc12 | 1.77 | 4.26 | 2.56 | 7.71 | 2.09 | 5.03 | 1.65 | 4.6 | 1.89 | 4.75 | 1.08 | 2.8 | 1.29 | 2.96 | 2.53 | 8.51 | 1.81 | 3.98 | 1.95 | 5.18
5 | O=S(=O)(NCCNc1nccc(-c2c(-c3cccc(O)c3)nc3sccn23)n1)c1ccc(F)cc1 |  |  | 5.53 | 32 | 5.37 | 59 | 2.65 | 57.3 | 3.53 | 18.1 | 7.58 | 25.2 | 5.95 | 36.9 | 7.51 | 42.3 | 5.35 | 41.8 | 3.88 | > 100
6 | Cc1cc2c3ccccc3n(C)c2c2c1C(=O)c1ccccc1C2=O |  | 27.7 |  | 27.4 |  | 61.7 |  | 22.5 |  | 54.3 |  | > 100 |  | > 100 |  | > 100 |  | 34.3 |  | 55.1
7 | Cc1c2ccccc2c(C)c2c3c(ccc12)C(=O)C=CC3=O |  | 5.3 |  | 6.78 |  | > 100 |  | 25.2 |  | 55.5 |  | > 100 |  | 47 |  | 43.1 |  | > 62.2 |  | 50.9
8 | Cc1cccc(CN(C)c2ccc(CO)c(Cl)c2)c1 | 23.8 | 82.6 | 22.2 | > 75.5 | 12.6 | 46.8 | 24.7 | > 73.8 | 0.475 | 2.67 | 0.0433 | 0.184 | 7.18 | > 100 | 33.7 | > 100 | 13.2 | 34.1 | 8.76 | > 100
9 | CC(=O)Nc1ccc2nncnc2c1 |  | > 100 |  | > 100 |  | > 100 |  | > 100 |  | > 100 |  | > 100 |  | > 100 |  | > 100 |  | > 100 |  | > 100
10 | O=C(CCc1nnc2s/c(=C\c3ccccc3)c(=O)n12)Nc1cc(Cl)ccc1Cl |  | > 100 |  | > 100 |  | > 100 |  | > 100 |  | > 100 |  | > 100 |  | 23.7 |  | > 100 |  | > 100 |  | > 100
11 | Fc1ccc(-c2nc(-c3nc4ccc(Cl)cc4[nH]3)cc3c2[nH]c2ccccc23)cc1 | 4.32 | 17.8 | 2.48 | 8.37 | 7.43 | 24.6 | 3.71 | > 100 | 2.89 | 12.2 | 2.01 | 9.71 | 4 | 19.2 | 3.66 | 17.7 | 5.71 | 18.7 | 3.32 | 38.4
12 | C=CCC(C(=O)OC)C1(C(=O)OC)c2[nH]c3ccccc3c2CCN1Cc1ccccc1 (stereo unspecified) |  | > 100 |  | > 100 |  | > 100 |  | > 100 |  | > 100 |  | > 100 |  | > 100 |  | > 100 |  | > 100 |  | 
13 | COc1ccc(/C=C2\N=C(c3ccccc3)OC2=O)c(OCc2ccccc2)c1 |  | > 100 |  | 80.6 |  |  |  | > 100 |  | 64.4 |  | 68.5 |  | > 100 |  | > 100 |  | 34.8 |  | > 100
14 | CCOC(=O)CC(=O)ON(C)C(=O)Cc1ccccc1 |  | > 100 |  |  |  | > 100 |  | > 100 |  | > 100 |  | > 100 |  | > 100 |  | > 100 |  | > 100 |  | 
15 | CCc1cccc(C(C)CC)c1N=C(NC(=O)c1ccccc1C(=O)NC(=Nc1c(CC)cccc1C(C)CC)SC)SC (stereo unspecified) |  | 51.5 |  | > 100 |  | > 100 |  | > 100 |  | > 100 |  |  |  | > 100 |  | > 100 |  | > 100 |  | > 100
16 | COc1ccc(CN2c3ccccc3Sc3ccccc32)cc1F |  |  | 0.438 | > 100 | 0.559 | > 100 | 0.36 | > 42.7 | 1.45 | > 100 | 0.283 | 0.927 | 0.398 | > 100 | 1.14 | > 100 | 0.615 | > 100 | 0.383 | > 100
